Laboratory results reported in patent publication US9980967B1, “Method for overcoming drug resistance of EGFR mutation and cancerous stemness of human non-small cell lung carcinoma” (NATIONAL CHIAO TUNG UNIVERSITY, priority 2017, dated 2018).

What was measured:
[1] = molecular target: T1, phosphorylated EGFR (Tyr 1068) (Homo sapiens, UniProt P00533, L858R/T790M); assay: Western blot of phosphorylated EGFR and total EGFR in H1975 cells; type: cell-based; details: 20~30 μM for 24 hours
T1 construct: endogenous in cells; host or cells: H1975 (ATCC CRL-5908)
Protocol: EGFR binding cognate ligands may lead to autophosphorylation of receptor tyrosine kinase and subsequent activation of signal transduction pathways of cell survival. Besides, aberrant tyrosine kinase activation increases proliferation and drug resistance of malignant cells. Please refer to FIG. 3. H1975 cells were treated with 0˜30 μM of SP101 for 24 hours. The total protein extracts were prepared for Western blot analyses using specific antibodies, including rabbit anti-p-EGFR (Tyr1068), rabbit anti-EGFR and mouse anti-actin. Representative immunoblotting data were shown from one of three separate experiments with similar findings. Actin was an internal control protein.

[2] = tested on: Survivin and cleaved Caspase 3 in xenograft tumor tissues; assay: Western blot and IHC of Survivin and cleaved Caspase 3 in xenograft tumor tissues; type: in vivo, nude mice
Source text: FIG. 11 is a result of IHC immunohistochemistry staining showing that SP101 enhanced Caspase 3 protein level in NSCLC tumor tissues. Representative photographs were by IHC staining the active Caspase 3 proteins in the tumor sections. Positive cells were visualized by DAB staining (brown), counterstain with nuclei by hematoxylin.
Please refer to FIG. 10. The xenograft tumor tissues from each group were homogenized and the total lysates were subjected to Western blot analysis using specific antibodies, including rabbit anti-Survivin, rabbit anti-cleaved Caspase 3 and mouse anti-actin. Representative immunoblotting data were shown from one of two separate experiments with similar findings. Actin was an internal control protein. SP101 reduced Survivin protein level; meanwhile, SP101 induced the apoptotic protein level of cleaved Caspase 3.

[3] = tested on: A549 cells; assay: Annexin V/PI apoptosis flow cytometry in A549 cells; type: cell-based, human; details: 30 μM for 24 hours
Protocol: (§1) At the end of treatment, apoptosis was measured by Annexin VPI staining using flow cytometry analysis. The population of Annexin V+/PI− cells represents cells undergoing early apoptosis (low right), whereas the fraction of Annexin V+/PI+ cell are those undergoing late apoptosis (upper right). The representative flow data were shown from one of three separate experiments with similar findings.
Please refer to FIG. 14. The expressions of phosphorylated EGFR and total EGFR proteins after treatment with SP101 (10˜40 μM for 24 hours) in the K-Ras mutation A549 cells were analyzed by Western blot. […] Please refer to FIG. 15. We further examined the apoptosis levels of SP101 in A549 cells by Annexin V and PI staining. The cells were trypsinized and then incubated with propidium iodide (5 μl) and Annexin V-FITC (5 μl) at room temperature for 5 min before flow cytometry.

[4] = tested on: Oct4, Nanog and Survivin in A549-ON cells; assay: Western blot and immunofluorescence of Oct4, Nanog and Survivin in A549-ON cells; type: cell-based, human
Protocol: At the end of treatment, the total protein extracts were prepared for Western blot analyses using specific antibodies, including rabbit anti-Survivin, rabbit anti-cleaved caspase 3 and mouse anti-actin. Representative immunoblotting data were shown from one of three separate experiments with similar findings. […] was an internal control protein.
(§2) FIG. 17 is a result of immunofluorescence staining and confocal microscopy. Then green color indicates the location of Oct4 excited with 488 nm and the emission and collected in 493-518 nm. The β-tubulin was stained with Cy3-labeled mouse anti-β-tubulin antibody. The fluorescence intensity of β-tubulin (red color) was excited with 543 nm and the emission was collected in range of 560-580 nm. Blue fluorescence indicates nuclei following staining with Hoechst 33258 and was excited with 405 nm and the emission was collected in 415-450 nm. Overlapping localization is shown in the merged images.
as §2, with “18” for “17”, “Survivin protein” for “Oct4”
Oct4 and Nanog have been served as markers of tumorigenesis. Furthermore, Oct4 played a pivotal role in Gefitinib resistance in lung cancer stem cells. […] Please refer to FIG. 16. […] We further investigated the expression of Oct4 and Survivin by immunofluorescence staining and confocal microscopy. Please refer to FIGS. 17 and 18. The green fluorescence (dylight 488) indicated the location of Oct4 and Survivin. The blue fluorescence (Hoechst 33258) and red (Cy3) fluorescence represent nucleus and β-tubulin, respectively. Treatment with 30 μM SP101 for 24 hours inhibited Oct4 proteins expression and induced apoptotic bodies as shown in FIG. 17; moreover, the Survivin proteins were inhibited by SP101 treatment as shown in FIG. 18.

[5] = tested on: A549-ON cells; assay: Annexin V/PI apoptosis flow cytometry in A549-ON cells; type: cell-based, human; details: 30 μM
Protocol: as §1, with “V-PI” for “VPI”
The bar represents the mean±S.E.M. ***p<0.001 indicates significant difference between untreated and SP101 or Gefitinib treated samples.
We compared the apoptosis levels of SP101 and Gefitinib in cancer stem-like A549-ON cells by Annexin V and PI staining. Please refer to FIG. 19. […] Please refer to FIG. 20. The average of total apoptosis follows SP101 and Gefitinib in the A549-ON cells around 69.29% and 7.59%, respectively.

[6] = tested on: PLC26 cells; assay: Annexin V/PI apoptosis flow cytometry in PLC26 cells; type: cell-based, human; details: 30 μM for 24 hours
Protocol: At the end of treatment, apoptosis was measured by Annexin V-PI staining using flow cytometry analysis. The population of Annexin V+/PI− cells represents cells undergoing early apoptosis (low right), whereas the fraction of Annexin V+/PI+ cell are those undergoing late apoptosis (upper right).
We have further investigated the effect of SP101 in PLC26 lung cancer cells separated from the pleural effusion of a clinical lung cancer patient. To compare the cell viability of SP101 and Gefitinib in PLC26 cells, the cells were treated with 0˜40 μM SP101 or Gefitinib for 24 hours, and analyzed by MTT assays. Please refer to FIG. 21. […] The apoptosis levels of SP101 in PLC26 cells were analyzed by Annexin V and PI staining. The PLC26 cells were trypsinized and then incubated with propidium iodide (5 μl) and Annexin V-FITC (5 μl) at room temperature for 5 mins before flow cytometry. Please refer to FIG. 22.

[7] = xenograft tumor tissues, Western blot
[8] = 30 μM for 24 hours, immunofluorescence and confocal microscopy
[9] = 20<30 μM for 24 hours, Western blot

CCCCCCCCCCCCOC(=O)CCC(=O)N1CCN(CCCOc2cc3c(Nc4ccc(F)c(Cl)c4)ncnc3cc2OC)CC1 [SP101, dodecyl 4-(4-(3-(4-(3-chloro-4-fluorophenylamino)-7-methoxyquinazolin-6-yloxy)propyl)piperazin-1-yl)-4-oxobutanoate] was tested, and the “phosphorylated EGFR (Tyr 1068) protein level” value [1] was “significantly reduced”, the “total EGFR protein level” value [1] was “did not inhibit” and the Survivin protein level [2, 7] was “reduced”. For the same compound, the “apoptotic protein level of cleaved Caspase 3” value [2, 7] was “induced”, the “reduction of Survivin protein and increasing of cleaved Caspase 3 protein level, compared with Gefitinib” value [2, 7] was “more potent” and the “active forms of Caspase 3 protein” value ([2]; xenografted NSCLC tumors, IHC staining, compared with control and Gefitinib groups) was “significantly induced”. The “levels of Annexin V+/PI− cells (early apoptosis) and Annexin V+/PI+ cells (late apoptosis)” value (“levels of Annexin V+/PI− cells” below) [3] was “significantly increased”, the Oct4 proteins expression [4, 8] was “inhibited” and the Survivin proteins [4, 8] was “inhibited”. For the same compound, the Nanog protein expression [4, 9] was “significantly reduced”, the Oct4 protein expression [4, 9] was “significantly reduced” and the Survivin protein expression [4, 9] was “significantly reduced”. The “late apoptosis cells, compared with Gefitinib” value [5] was “induced more late apoptosis cells than Gefitinib”, the “levels of Annexin V+/PI− cells” value [5] was “significantly increased” and the “average of total apoptosis” value ([5]; early and late apoptosis, flow cytometry) was “around 69.29%”. The “levels of Annexin V+/PI− cells” value [6] was “significantly increased”.
